Measurements taken from patent US9447157B2, “Nitration shielding peptides and methods of use thereof” (Augusta University Research Institute, Inc., priority 2013, dated 2016).

Tests used:
[1] = molecular target: T1, PKG-1α (Homo sapiens, UniProt Q13976); test: [3H]cGMP binding assay; conditions: SIN-1 500 μM 30 min
T1 construct: transfected with an expression plasmid containing a full length WT-PKG-1α cDNA; made in house; host or cells: HEK-293T (methods); the results paragraph b527 says PASMC
T1 sequence (Q13976 2-671): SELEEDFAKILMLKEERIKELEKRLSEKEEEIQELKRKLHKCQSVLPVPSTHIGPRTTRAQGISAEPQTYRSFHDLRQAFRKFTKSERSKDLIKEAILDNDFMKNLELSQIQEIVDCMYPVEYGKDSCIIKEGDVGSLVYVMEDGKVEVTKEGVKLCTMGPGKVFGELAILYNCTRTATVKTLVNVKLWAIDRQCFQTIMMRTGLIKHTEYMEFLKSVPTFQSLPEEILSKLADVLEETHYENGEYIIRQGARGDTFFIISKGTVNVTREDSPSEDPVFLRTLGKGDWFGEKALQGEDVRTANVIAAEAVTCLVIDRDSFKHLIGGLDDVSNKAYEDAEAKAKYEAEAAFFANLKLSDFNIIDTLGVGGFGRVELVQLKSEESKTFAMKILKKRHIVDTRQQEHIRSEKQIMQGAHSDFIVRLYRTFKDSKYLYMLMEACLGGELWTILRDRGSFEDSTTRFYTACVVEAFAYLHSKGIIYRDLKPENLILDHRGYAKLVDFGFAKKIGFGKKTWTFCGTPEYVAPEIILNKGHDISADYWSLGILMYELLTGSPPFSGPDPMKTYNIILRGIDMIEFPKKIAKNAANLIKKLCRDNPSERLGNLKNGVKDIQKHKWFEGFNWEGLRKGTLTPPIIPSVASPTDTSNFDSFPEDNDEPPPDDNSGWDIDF
Experimental: HEK-293T cells were transiently transfected with either the WT-PKG-1α or the Y247FPKG-1α cDNA using Effectene transfection reagent (Qiagen), according to the manufacturer's instructions. Briefly, the cells were split the day before the transfection to low cell densities (25%) and were transfected 24 h later. After 48 h of transfection, the cells were incubated in DMEM serum free media containing 1% FBS and antibiotics for 4 h and then treated with or without SIN-1 (500 μM), for 30 min. This method produced an approximate 70% transfection efficiency of HEK-293T cells, as measured using green fluorescent protein vectors. […]
The batches of supernatant were pooled, and 2 μg of anti-PKG-1α antibody per mg of protein were added to the extract and rocked at 4° C. […] After 15 min of agitation at 4° C., the beads were pelleted by centrifugation, and the supernatant containing the PKG-1α protein was collected, quantified using Bradford reagent, and stored at −80° C.
To assay the binding of cGMP to WT- and Y247F-PKG-1α the enzymes were saturated with cGMP by incubating 50 μl aliquots of the diluted PKG constructs for 60 min at room temperature with 50 μl of [^3H]cGMP and 150 μl of cGMP-binding assay mixture (25 mM K2HPO4, 25 mM KH2PO4, 1 mM EDTA, pH 6.8, 2M NaCl, 200 μM 3-isobutyl-1-methylxanthine). […] The dissociation constant (Kd) values were determined using GraphPad Prism graphics.

[2] = system: Pulmonary artery smooth muscle cells (PASMC); test: PASMC cell growth (cell count); format: cell-based, lamb; conditions: SIN-1 500 μM 48 h
Experimental: Pulmonary artery smooth muscle cells (PASMC) were grown on a 10 cm dish to 75% confluence, transfected with WT-PKG-1α or Y247F-PKG-1α cDNA using a Qiagen transfection kit, according to manufacturer's instructions, and incubated at 37° C. for 20 h. […] The cells were then trypsinized, seeded onto a 6-well plate at a density of 2.5×10^4 cells per well, and grown for an additional 4 h in serum-free DMEM growth medium containing 1% FBS and antibiotics. The cells were then treated with or without SIN-1 (500 μM) and allowed to grow at 37° C. in the incubator for an additional 48 h. The cellular proliferation was evaluated by counting the cells with a hemacytometer (Cascade Biologicals™, Portland, Oreg.) after the trypsinization of the PASMC monolayers.

3-morpholinosydnonimine N-ethylcarbamide [SIN-1]
Maximal [3H]cGMP binding to WT-PKG-1α [1]: significantly attenuated | Proliferation, WT-PKG-1α transfected PASMC [2]: stimulated
